From patent publication US6511961B1, “Cyclic peptides and medicinal use thereof” (Toray Industries, Inc., priority 1997, dated 2003)
Where two headings read alike, the source gives them in different places.

Conditions: disulfide bond, 20-membered ring, AgOTf/anisole/TFA, then DMSO/HCl, 50% DMSO-1N HCl, 2 steps

## CC[C@H](C)[C@@H]1NC(=O)[C@@H](N)CSSC[C@@H](C(=O)O)NC(=O)[C@H](CC(C)C)NC(=O)[C@H](Cc2ccccn2)NC(=O)[C@H](CC(=O)O)NC1=O [C*IDAla(2-Pyr)LC*]
From H-Cys(Acm)-Ile-Asp-Ala(2-Pyr)-Leu-Cys(Acm)-OH
  ring closure, yield after HPLC: 56%

## CC[C@H](C)[C@@H]1NC(=O)[C@@H](N)CSSC[C@@H](C(=O)O)NC(=O)[C@H](CC(C)C)NC(=O)[C@H](CC2CCCCC2)NC(=O)[C@H](CC(=O)O)NC1=O [C*IDChaLC*]
From H-Cys(Acm)-Ile-Asp-Cha-Leu-Cys(Acm)-OH
  ring closure, yield after HPLC: 34%

## CC[C@H](C)[C@@H]1NC(=O)[C@H](Cc2ccccc2)NC(=O)[C@H](CC(=O)O)NC(=O)[C@H]([C@@H](C)CC)NC(=O)[C@@H](N)CSSC[C@@H](C(=O)O)NC1=O [C*IDFIC*]
From H-Cys(Acm)-Ile-Asp-Phe-Ile-Cys(Acm)-OH
  ring closure, yield after HPLC: 37%

## CC[C@H](C)[C@@H]1NC(=O)[C@@H](N)CSSC[C@@H](C(=O)O)NC(=O)[C@H](CC(C)C)NC(=O)[C@H](Cc2ccccc2)NC(=O)[C@H](CC(=O)O)NC1=O [C*IDFLC*]
From H-Cys(Acm)-Ile-Asp-Phe-Leu-Cys(Acm)-OH
  ring closure, yield after HPLC: 50%

## CC[C@H](C)[C@@H]1NC(=O)[C@H](Cc2c[nH]cn2)NC(=O)[C@H](CC(=O)O)NC(=O)[C@H]([C@@H](C)CC)NC(=O)[C@@H](N)CSSC[C@@H](C(=O)O)NC1=O [C*IDHIC*]
From H-Cys(Acm)-Ile-Asp-His-Ile-Cys(Acm)-OH
  ring closure, yield after HPLC: 50%

## CC[C@H](C)[C@@H]1NC(=O)[C@@H](N)CSSC[C@@H](C(=O)O)NC(=O)[C@H](CC(C)C)NC(=O)[C@H](Cc2c[nH]cn2)NC(=O)[C@H](CC(=O)O)NC1=O [C*IDHLC*]
From H-Cys(Acm)-Ile-Asp-His-Leu-Cys(Acm)-OH, 0.48 mM
  ring closure, yield after HPLC: 73%

## CC[C@H](C)[C@@H]1NC(=O)[C@@H](N)CSSC[C@@H](C(N)=O)NC(=O)[C@H](CC(C)C)NC(=O)[C@H](Cc2c[nH]cn2)NC(=O)[C@H](CC(=O)O)NC1=O [C*IDHLC*—NH2]
From H-Cys(Acm)-Ile-Asp-His-Leu-Cys(Acm)-NH2
  ring closure, yield after HPLC: 58%

## CC[C@H](C)[C@@H]1NC(=O)[C@@H](N)CSSC[C@@H](C(=O)OC)NC(=O)[C@H](CC(C)C)NC(=O)[C@H](Cc2c[nH]cn2)NC(=O)[C@H](CC(=O)O)NC1=O [C*IDHLC—OMe*]
From H-Cys(Acm)-Ile-Asp-His-Leu-Cys(Acm)-OMe
  ring closure, yield after HPLC: 35%

## CC[C@H](C)[C@@H]1NC(=O)[C@@H](N)CSSC[C@@H](C(=O)O)NC(=O)[C@H](c2ccccc2)NC(=O)[C@H](Cc2c[nH]cn2)NC(=O)[C@H](CC(=O)O)NC1=O [C*IDHPhgC*]
From H-Cys(Acm)-Ile-Asp-His-Phg-Cys(Acm)-OH
  ring closure, yield after HPLC: 37%

## CC[C@H](C)[C@@H]1NC(=O)[C@@H](N)CSSC[C@@H](C(=O)O)NC(=O)[C@@H](CC(C)C)NC(=O)[C@H](Cc2c[nH]cn2)NC(=O)[C@H](CC(=O)O)NC1=O [C*IDHdLC*]
From H-Cys(Acm)-Ile-Asp-His-dLeu-Cys(Acm)-OH
  ring closure, yield after HPLC: 51%

## CC[C@H](C)[C@@H]1NC(=O)[C@@H](N)CSSC[C@@H](C(=O)O)NC(=O)[C@@H](c2ccccc2)NC(=O)[C@H](Cc2c[nH]cn2)NC(=O)[C@H](CC(=O)O)NC1=O [C*IDHdPhgC*]
From H-Cys(Acm)-Ile-Asp-His-dPhg-Cys(Acm)-OH
  ring closure, yield after HPLC: 37%

## CC[C@H](C)[C@@H]1NC(=O)[C@@H](N)CSSC[C@@H](C(=O)O)NC(=O)[C@H](CC(C)C)NC(=O)[C@H](CCc2ccccc2)NC(=O)[C@H](CC(=O)O)NC1=O [C*IDHphLC*]
From H-Cys(Acm)-Ile-Asp-Hph-Leu-Cys(Acm)-OH
  ring closure, yield after HPLC: 38%

## CC[C@H](C)[C@@H]1NC(=O)[C@@H](N)CSSC[C@@H](C(=O)O)NC(=O)[C@H](CC(C)C)NC(=O)[C@H](c2ccccc2)NC(=O)[C@H](CC(=O)O)NC1=O [C*IDPhgLC*]
From H-Cys(Acm)-Ile-Asp-Phg-Leu-Cys(Acm)-OH
  ring closure, yield after HPLC: 48%

## CC[C@H](C)[C@@H]1NC(=O)[C@@H](N)CSSC[C@@H](C(=O)O)NC(=O)[C@H](CC(C)C)NC(=O)[C@H](C(C)(C)C)NC(=O)[C@H](CC(=O)O)NC1=O [C*IDTleLC*]
From H-Cys(Acm)-Ile-Asp-Tle-Leu-Cys(Acm)-OH
  ring closure, yield after HPLC: 23%

## CC[C@H](C)[C@@H]1NC(=O)[C@@H](N)CSSC[C@@H](C(=O)O)NC(=O)[C@H](CC(C)C)NC(=O)[C@H](Cc2c[nH]c3ccccc23)NC(=O)[C@H](CC(=O)O)NC1=O [C*IDWLC*]
From H-Cys(Acm)-Ile-Asp-Trp-Leu-Cys(Acm)-OH
  ring closure, yield after HPLC: 47%

## CC[C@H](C)[C@@H]1NC(=O)[C@@H](N)CSSC[C@@H](C(=O)O)NC(=O)[C@H](CC(C)C)NC(=O)[C@@H](Cc2c[nH]cn2)NC(=O)[C@H](CC(=O)O)NC1=O [C*IDdHLC*]
From H-Cys(Acm)-Ile-Asp-dHis-Leu-Cys(Acm)-OH
  ring closure, yield after HPLC: 74%

## CC[C@H](C)[C@@H]1NC(=O)[C@@H](N)CSSC[C@@H](C(=O)O)NC(=O)[C@H](CC(C)C)NC(=O)[C@@H](c2ccccc2)NC(=O)[C@H](CC(=O)O)NC1=O [C*IDdPhgLC*]
From H-Cys(Acm)-Ile-Asp-dPhg-Leu-Cys(Acm)-OH
  ring closure, yield after HPLC: 8%

## CC[C@H](C)[C@@H]1NC(=O)[C@@H](N)CSSC[C@@H](C(=O)O)NC(=O)[C@H](CC(C)C)NC(=O)[C@H](Cc2c[nH]cn2)NC(=O)[C@H](CCC(=O)O)NC1=O [C*IEHLC*]
From H-Cys(Acm)-Ile-Glu-His-Leu-Cys(Acm)-OH
  ring closure, yield after HPLC: 71%

## CC[C@H](C)[C@@H]1NC(=O)[C@@H](N)CSSC[C@@H](C(=O)O)NC(=O)[C@H](CC(C)C)NC(=O)[C@H](Cc2c[nH]cn2)NC(=O)[C@H](CCO)NC1=O [C*IHseHLC*]
From H-Cys(Acm)-Ile-Hse-His-Leu-Cys(Acm)-OH
  ring closure, yield after HPLC: 56%

## CC[C@H](C)[C@@H]1NC(=O)[C@@H](N)CSSC[C@@H](C(=O)O)NC(=O)[C@H](CC(C)C)NC(=O)[C@H](Cc2c[nH]cn2)NC(=O)[C@H](CCS(C)(=O)=O)NC1=O [C*IMet(O2)HLC*]
From H-Cys(Acm)-Ile-Met(O2)-His-Leu-Cys(Acm)-OH
  ring closure, yield after HPLC: 68%

## CC[C@H](C)[C@@H]1NC(=O)[C@@H](N)CSSC[C@@H](C(=O)O)NC(=O)[C@H](CC(C)C)NC(=O)[C@H](Cc2c[nH]cn2)NC(=O)[C@H](CC(N)=O)NC1=O [C*INHLC*]
From H-Cys(Acm)-Ile-Asn-His-Leu-Cys(Acm)-OH
  ring closure, yield after HPLC: 85%

## CC[C@H](C)[C@@H]1NC(=O)[C@@H](N)CSSC[C@@H](C(N)=O)NC(=O)[C@H](CC(C)C)NC(=O)[C@H](Cc2c[nH]cn2)NC(=O)[C@H](CC(N)=O)NC1=O [C*INHLC*—NH2]
From H-Cys(Acm)-Ile-Asn-His-Leu-Cys(Acm)-NH2
  ring closure, yield after HPLC: 18%

## CC[C@H](C)[C@@H]1NC(=O)[C@@H](N)CSSC[C@@H](C(=O)O)NC(=O)[C@H](CC(C)C)NC(=O)[C@H](Cc2c[nH]cn2)NC(=O)[C@H](COC)NC1=O [C*IS(OMe)HLC*]
From H-Cys(Acm)-Ile-Ser(OMe)-His-Leu-Cys(Acm)-OH
  ring closure, yield after HPLC: 52%

## CC[C@H](C)[C@@H]1NC(=O)[C@@H](N)CSSC[C@@H](C(=O)O)NC(=O)[C@H](CC(C)C)NC(=O)[C@H](Cc2c[nH]cn2)NC(=O)[C@H](Cc2ccc(O)cc2)NC1=O [C*IYHLC*]
From H-Cys(Acm)-Ile-Tyr-His-Leu-Cys(Acm)-OH
  ring closure, yield after HPLC: 52%

## CC(C)C[C@@H]1NC(=O)[C@H](Cc2c[nH]cn2)NC(=O)[C@H](CC(=O)O)NC(=O)[C@H](c2ccccc2)NC(=O)[C@@H](N)CSSC[C@@H](C(=O)O)NC1=O [C*PhgDHLC*]
From H-Cys(Acm)-Phg-Asp-His-Leu-Cys(Acm)-OH
  ring closure, yield after HPLC: 64%

## CC(C)C[C@@H]1NC(=O)[C@H](Cc2c[nH]cn2)NC(=O)[C@H](CC(=O)O)NC(=O)[C@@H]2Cc3ccccc3CN2C(=O)[C@@H](N)CSSC[C@@H](C(=O)O)NC1=O [C*TicDHLC*]
From H-Cys(Acm)-Tic-Asp-His-Leu-Cys(Acm)-OH
  ring closure, yield after HPLC: 30%

## CC(C)C[C@@H]1NC(=O)[C@H](Cc2c[nH]cn2)NC(=O)[C@H](CC(=O)O)NC(=O)[C@H](C(C)(C)C)NC(=O)[C@@H](N)CSSC[C@@H](C(=O)O)NC1=O [C*TleDHLC*]
From H-Cys(Acm)-Tle-Asp-His-Leu-Cys(Acm)-OH
  ring closure, yield after HPLC: 69%
